{"source": "ChEMBL document CHEMBL5252585", "about": "“Structure optimization and discovery of novel compound for the treatment of insertion mutations within exon 20 of EGFR and HER2” (Bioorg Med Chem, 2023)", "key": {"BaF3 [1]": {"tested_on": "BaF3", "assay": "Inhibition of EGFR D770-N771 ins NPG mutant in mouse BaF3 cells assessed as reduction in EGFR phosphorylation incubated for 24 hrs by Western blot analysis", "type": "cell-based", "conditions": "dose 1-100 nM"}, "[2]": {"assay": "Toxicity in BALB/c mouse harboring HER2-A775-G776 ins YVMA mutant implanted with mouse BaF3 cells assessed as change in body weight at 10 to 20 mg/kg, po administered once daily for 13 to 14 days", "type": "organism-based", "conditions": "in vivo, dose lower 10 mg/kg, time lower 13 day, dose upper 20 mg/kg, time upper 14 day"}, "BaF3 [3]": {"tested_on": "BaF3", "assay": "In vivo inhibition of EGFR D770-N771 ins NPG mutant in BALB/c mouse implanted with mouse BaF3 cells assessed as reduction in EGFR phosphorylation at 10 to 20 mg/kg, po administered once daily for 13 to 14 days by Western blot analysis", "type": "functional, organism-based", "conditions": "dose 10-20 mg/kg, time 13-14 day"}, "[4]": {"assay": "Mean residence time in Sprague-Dawley rat at 10 mg/kg, po measured upto 8 hrs by LC-MS/MS analysis", "type": "ADME, organism-based", "conditions": "in vivo"}, "BaF3 [5]": {"tested_on": "BaF3", "assay": "Antiproliferative activity against mouse BAF3 cells harboring HER2-P780-Y781 ins GSP mutant after 72 hrs by celltiter-Glo luminescence assay", "type": "functional, cell-based", "conditions": "BaF3, 72 h"}}, "note": "pIC50: −log10 of the molar value. Calls of active or inactive are those of the source. The rule behind the calls is not given here."}
{"smiles": "C=CC(=O)N1CCC(Oc2cc3c(Nc4cccc(Cl)c4F)ncnc3cc2O[C@H]2CCOC2)CC1", "values": [{"measurement": "inhibition", "setting": "BaF3 [1]", "value": "Dose-Dependent Effect"}, {"measurement": "Activity", "setting": "[2]", "value": "Non-Toxic"}, {"measurement": "inhibition", "setting": "BaF3 [3]", "value": "Active"}, {"measurement": "MRT", "setting": "[4]", "value": 3.58, "unit": "h"}, {"measurement": "pIC50", "setting": "BaF3 [5]", "value": 9.21}]}
